In assay [1] the target is IDH1-R132H recombinant protein (Homo sapiens (Human), UniProt O75874, R132H). In words: IDH1-R132H enzymatic assay (inhibition of NADPH consumption, diaphorase/resazurin readout). The note with it: read-out: Enzyme IDH1 R132H IC50 (Range). Type of assay: biochemical. As to the method:
(§1) Assays were performed in a 384-well black plate. An aliquot of 250 nL of compound was incubated with 10 μL of 30 nM IDH1-R132H or 10 nM IDH1-R132C recombinant protein in assay buffer (50 mM Tris pH=7.5, 150 mM NaCl, 5 mM MgCl2, 0.1% (w/v) Bovine Serum Albumin, and 0.01% Triton X-100) in each well at 25° C. for 15 minutes. After the plate was centrifuged briefly, an aliquot of 10 μL of 2 mM α-ketoglutarate and 20 μM NADPH solution prepared in assay buffer was then added to each well and the reaction was maintained at 25° C. for 45 minutes. An aliquot of 10 μL of diaphorase solution (0.15 U/mL diaphorase and 30 µM Resazurin in assay buffer) was added to each well. The plate was maintained at 25° C. for 15 minutes and then read on a plate reader with excitation and emission wavelengths at 535 nm and 590 nm, respectively. The IC50 of a given compound was calculated by fitting the dose response curve of inhibition of NADPH consumption at a given concentration with the four parameter logistic equation.
(In general: The colour change of resazurin is a common sign of viable cells or microbes.)

Assay [2] has as its target IDH1-R132C recombinant protein (Homo sapiens (Human), UniProt O75874, R132C). The assay can be described thus: IDH1-R132C enzymatic assay (inhibition of NADPH consumption, diaphorase/resazurin readout). Type of assay: biochemical. As to conditions: read-out: Enzyme IDH1 R132C IC50 (Range). As to the method:
as §1

For 30 molecules, IC50 results are on record in patent publication US10280150B2 (FORMA TM2, Inc., priority 2014, dated 2019).

In general, IC50 refers to the point on the concentration scale where inhibition reaches its midpoint.

Sequence of IDH1-R132C recombinant protein (O75874 whole entry R132C): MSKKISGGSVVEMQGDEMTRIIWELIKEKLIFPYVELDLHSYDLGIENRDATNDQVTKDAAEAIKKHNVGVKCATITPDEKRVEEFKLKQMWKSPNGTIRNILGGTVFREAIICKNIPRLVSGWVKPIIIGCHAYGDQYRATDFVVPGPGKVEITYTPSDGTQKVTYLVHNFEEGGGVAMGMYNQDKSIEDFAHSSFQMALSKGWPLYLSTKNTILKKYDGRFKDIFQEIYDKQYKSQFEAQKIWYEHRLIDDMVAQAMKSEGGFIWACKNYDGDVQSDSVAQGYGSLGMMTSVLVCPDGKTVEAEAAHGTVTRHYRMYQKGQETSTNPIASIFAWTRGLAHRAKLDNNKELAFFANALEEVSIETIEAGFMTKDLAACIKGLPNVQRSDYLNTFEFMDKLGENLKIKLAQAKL
Sequence of IDH1-R132H recombinant protein (O75874 whole entry R132H): as the sequence (O75874 whole entry R132C) above, with C132H counted along it

On to `COc1nc(N[C@@H](C)c2cc3cc(Cl)c(C4CC4)cc3[nH]c2=O)ncc1C#N` [Compound I-176, (S)-2-((1-(6-chloro-7-cyclopropyl-2-oxo-1,2-dihydroquinolin-3-yl)ethyl)amino)-4-methoxypyrimidine-5-carbonitrile], for which the IC50 in assay [1] is below 100 nM; in assay [2] it was 100 to 1000 nM.

In the case of `COc1cnccc1-c1ccnc(N[C@@H](C)c2cc3cc(Cl)ccc3[nH]c2=O)n1` [Compound I-97], the IC50 in assay [1] and in assay [2] was 1000 to 10000 nM throughout.

In the case of `CC(C)CN(c1ccnc(N[C@@H](C)c2cc3cc(Cl)ccc3[nH]c2=O)n1)S(C)(=O)=O` [Compound I-8, (S)—N-(2-(1-(6-Chloro-2-oxo-1,2-dihydroquinolin-3-yl)ethylamino)pyrimidin-4-yl)-N-isobutylmethanesulfonamide], the IC50 in assay [1] and in assay [2] was below 100 nM in each case.

As to `COc1cc2[nH]c(=O)c([C@@H](C)Nc3ncc(C#N)c(OC)n3)cc2cc1Cl` [Compound I-144, (R)-2-((1-(6-Chloro-7-methoxy-2-oxo-1,2-dihydroquinolin-3-yl)ethyl)amino)-4-methoxypyrimidine-5-carbonitrile], the IC50 lay within 100 to 1000 nM in assay [1] and 1000 to 10000 nM in assay [2].

Consider `COc1nc(N[C@@H](C)c2cc3cc(Cl)ccc3n(C)c2=O)ncc1C#N` [Compound I-41, (S)-2-((1-(6-chloro-1-methyl-2-oxo-1,2-dihydroquinolin-3-yl)ethyl)amino)-4-methoxypyrimidine-5-carbonitrile], for which the IC50 in assay [1] and in assay [2] was 1000 to 10000 nM each time.

Consider `COc1nc(NC2(c3cc4cc(Cl)ccc4[nH]c3=O)CC2)ncc1C#N` [Compound I-169, 2-((1-(6-Chloro-2-oxo-1,2-dihydroquinolin-3-yl)cyclopropyl)amino)-4-methoxypyrimidine-5-carbonitrile], for which the IC50 in assay [1] was 100 to 1000 nM; in assay [2], 1000 to 10000 nM.

For `C[C@H](Nc1ncc(C#N)c(=O)[nH]1)c1cc2cc(Cl)ccc2[nH]c1=O` [Compound I-178, (S)-2-((1-(6-chloro-2-oxo-1,2-dihydroquinolin-3-yl)ethyl)amino)-6-oxo-1,6-dihydropyrimidine-5-carbonitrile], the IC50 was below 100 nM in assay [1] and 1000 to 10000 nM in assay [2].

Consider `C[C@H](Nc1nccc(N(C)C(=O)N(C)C)n1)c1cc2cc(Cl)ccc2[nH]c1=O` [Compound I-125, (S)-1-(2-((1-(6-chloro-2-oxo-1,2-dihydroquinolin-3-yl)ethyl)amino)pyrimidin-4-yl)-1,3,3-trimethylurea], for which the IC50 in assay [1] is 1000 to 10000 nM.

For the molecule `CC(C)CSc1ccnc(N[C@@H](C)c2cc3cc(Cl)ccc3[nH]c2=O)n1` [Compound I-107], in assay [1], the IC50 fell in the range of 1000 to 10000 nM.

In the case of `C[C@H](Nc1nccc(CN(C2CC2)S(C)(=O)=O)n1)c1cc2cc(Cl)ccc2[nH]c1=O` [Compound I-6, (S)—N-((2-((1-(6-Chloro-2-oxo-1,2-dihydroquinolin-3-yl)ethyl)amino)pyrimidin-4-yl)methyl)-N-cyclopropylmethanesulfonamide], in assay [1], the IC50 is 100 to 1000 nM.

With `Cc1ccc2[nH]c(=O)c(CNc3nccc(N(C(C)C)S(C)(=O)=O)n3)cc2c1` [Compound I-166], in assay [1], the IC50 is 1000 to 10000 nM.

For `C[C@H](Nc1nccc(C2(S(C)(=O)=O)CC2)n1)c1cc2cc(Cl)ccc2[nH]c1=O` [Compound I-136, (S)-6-Chloro-3-(1-(4-(1-(methylsulfonyl)cyclopropyl)pyrimidin-2-ylamino)ethyl)quinolin-2(1H)-one], the IC50 in assay [1] was in the range of 100 to 1000 nM.

As to `C[C@H](Nc1nccc(CNS(C)(=O)=O)n1)c1cc2cc(Cl)ccc2[nH]c1=O` [Compound I-132], the IC50 in assay [1] was 1000 to 10000 nM.

Turning to `Cc1nn(C)cc1-c1ccnc(N[C@@H](C)c2cc3cc(Cl)ccc3[nH]c2=O)n1` [Compound I-77], the IC50 in assay [1] was in the range of 1000 to 10000 nM.

`COC(=O)C(c1ccnc(N[C@@H](C)c2cc3cc(Cl)ccc3[nH]c2=O)n1)S(C)(=O)=O` (stereo partly shown) [Compound I-134]: the IC50 in assay [1] was 1000 to 10000 nM.

Take `Cc1nc(N[C@@H](C)c2cc3cc(Cl)ccc3[nH]c2=O)ncc1Br` [Compound I-103]: the IC50 in assay [1] lay within 100 to 1000 nM.

As for `CC(=O)N(CC(C)(C)C)c1ccnc(N[C@@H](C)c2cc3cc(Cl)ccc3[nH]c2=O)n1` [Compound I-26, (S)—N-(2-((1-(6-Chloro-2-oxo-1,2-dihydroquinolin-3-yl)ethyl)amino)pyrmidin-4-yl)-N-neopentylacetamide], the IC50 in assay [1] is below 100 nM.

As to `C[C@H](Nc1nccc(N(CC(C)(C)C)S(C)(=O)=O)n1)c1cc2cc(Cl)ccc2[nH]c1=O` [Compound I-1], in assay [1], the 50% inhibitory concentration (IC50) is below 100 nM.

Consider `Cc1ncn(-c2ccnc(N[C@@H](C)c3cc4cc(Cl)ccc4[nH]c3=O)n2)c1C` [Compound I-53, (S)-6-Chloro-3-(1-((4-(4,5-dimethyl-1H-imidazol-1-yl)pyrimidin-2-yl)amino)ethyl)quinolin-2(1H)-one], for which, in assay [1], the IC50 is below 100 nM.

Turning to `C[C@H](Nc1nccc(NC2CC2)n1)c1cc2cc(Cl)ccc2[nH]c1=O` [Compound I-9, (S)-6-Chloro-3-(1-((4-(cyclopropylamino)pyrimidin-2-yl)amino)ethyl)quinolin-2(1H)-one], the IC50 in assay [1] fell in the range of 1000 to 10000 nM.

With `Cc1cn(-c2ccnc(N[C@@H](C)c3cc4cc(Cl)ccc4[nH]c3=O)n2)cn1` [Compound I-57], the IC50 in assay [1] was 100 to 1000 nM.

Consider `O=C1OCCN1c1ccnc(NC(CF)c2cc3cc(Cl)ccc3[nH]c2=O)n1` (stereo not shown) [Compound I-171], for which, in assay [1], the half-inhibitory concentration (IC50) is above 10000 nM.

Turning to `CC(=O)N(CC(C)C)c1ccnc(NC(C)c2cc3cc(Cl)ccc3[nH]c2=O)n1` (stereo not shown) [Compound I-34], the IC50 in assay [1] lay in the range of 100 to 1000 nM.

Turning to `COc1cc(OC)nc(NCc2cc3cc(Cl)ccc3[nH]c2=O)n1` [Compound I-163, 6-Chloro-3-(((4,6-dimethoxypyrimidin-2-yl)amino)methyl)quinolin-2(1H)-one], the IC50 in assay [1] was in the range of 1000 to 10000 nM.

As for `C[C@H](Nc1nccc(NC(=O)CC2CCOCC2)n1)c1cc2cc(Cl)ccc2[nH]c1=O` [Compound I-27, (S)—N-(2-((1-(6-chloro-2-oxo-1,2-dihydroquinolin-3-yl)ethyl)amino)pyrimidin-4-yl)-2-(tetrahydro-2H-pyran-4-yl)acetamide], the IC50 in assay [1] lay in the range of 100 to 1000 nM.

For the molecule `C[C@H](Nc1nccc(Nc2ncco2)n1)c1cc2cc(Cl)ccc2[nH]c1=O` [Compound I-127, (S)-6-Chloro-3-(1-((4-(oxazol-2-ylamino)pyrimidin-2-yl)amino)ethyl)quinolin-2(1H)-one], the IC50 in assay [1] is 100 to 1000 nM.

Regarding `CC(=O)c1ccccc1-c1ccnc(N[C@@H](C)c2cc3cc(Cl)ccc3[nH]c2=O)n1` [Compound I-72], the IC50 in assay [1] lay in the range of 1000 to 10000 nM.

Consider `C[C@H](Nc1nccc(N(CC(F)(F)F)S(C)(=O)=O)n1)c1cc2cc(Cl)ccc2[nH]c1=O` [Compound I-13], for which, in assay [1], the IC50 was below 100 nM.

Consider `CC(=O)N(c1ccnc(N[C@@H](C)c2cc3cc(Cl)ccc3[nH]c2=O)n1)C1CC1` [Compound I-28, (S)—N-(2-((1-(6-chloro-2-oxo-1,2-dihydroquinolin-3-yl)ethyl)amino)pyrimidin-4-yl)-N-cyclopropylacetamide], for which the IC50 in assay [1] was 100 to 1000 nM.

In the case of `CC(C)C[S@@+]([O-])c1ccnc(N[C@@H](C)c2cc3cc(Cl)ccc3[nH]c2=O)n1` [Compound I-106], the IC50 in assay [1] was in the range of 1000 to 10000 nM.
